Results as given in the SangsterLogP compilation.

Test: method code SF, from Recanatgini, M.; Leoni, A.; Baraldi, G. (1991). Partition coefficients of 3-methyl-4-nitropyrazole-5-carboxamides. 16, 127-130.
Details: not given
`Cc1ccc(NC(=O)c2[nH]nc(C)c2[N+](=O)[O-])cc1` gave a logP of 2.34.

Same assay, conditions: pH 1.0
Compound `CCCCCCCCNC(=O)c1[nH]nc(C)c1[N+](=O)[O-]` has a logD of 3.48. With `Cc1n[nH]c(C(=O)NC2CCCC2)c1[N+](=O)[O-]` the logD was 1.24. `Cc1n[nH]c(C(=O)N(C)C2CCCCC2)c1[N+](=O)[O-]` showed a logD of 1.68. `CCCCCCCCCCNC(=O)c1[nH]nc(C)c1[N+](=O)[O-]` gave a logD of 4.48. With `Cc1n[nH]c(C(=O)N2CCCC2)c1[N+](=O)[O-]` the logD was 0.25. Work on `Cc1[nH]nc(C(=O)N2CCCCC2)c1[N+](=O)[O-]` yielded a logD of 0.79. Compound `CCCCNC(=O)c1[nH]nc(C)c1[N+](=O)[O-]` has a logD of 1.27. For `Cc1n[nH]c(C(N)=O)c1[N+](=O)[O-]`, the logD was -0.38. For `Cc1n[nH]c(C(=O)N(C)Cc2ccccc2)c1[N+](=O)[O-]`, the logD was 1.65. `Cc1n[nH]c(C(=O)Nc2ccccc2)c1[N+](=O)[O-]` showed a logD of 1.81. Compound `Cc1[nH]nc(C(=O)NC2CC2)c1[N+](=O)[O-]` has a logD of 0.25. Work on `CCCCCCNC(=O)c1[nH]nc(C)c1[N+](=O)[O-]` yielded a logD of 2.46. For `CCNC(=O)c1n[nH]c(C)c1[N+](=O)[O-]`, the logD was 0.13. In the case of `Cc1n[nH]c(C(=O)NC2CCCCC2)c1[N+](=O)[O-]`, the logD is reported as 1.71. `Cc1n[nH]c(C(=O)NCc2ccccc2)c1[N+](=O)[O-]` showed a logD of 1.49. With `Cc1n[nH]c(C(=O)N2CCCCCC2)c1[N+](=O)[O-]` the logD was 1.15. With `CCCNC(=O)c1[nH]nc(C)c1[N+](=O)[O-]` the logD was 0.65. In the case of `CNC(=O)c1n[nH]c(C)c1[N+](=O)[O-]`, the logD is reported as -0.23. In the case of `Cc1n[nH]c(C(=O)NCCc2ccccc2)c1[N+](=O)[O-]`, the logD is reported as 1.82. In the case of `Cc1n[nH]c(C(=O)NC23CC4CC(CC(C4)C2)C3)c1[N+](=O)[O-]`, the logD is reported as 2.83.
